Like-named read-outs stand apart in the source and are kept apart here.
System: HT-29 cells
Assay: Necroptosis assay (TNF-α/Smac mimetic/z-VAD, TSZ-induced) in HT-29 cells
Type: cell-based, human
Method: Methods: HT-29 cells were cultured in McCoy's 5 A culture medium (Invitrogen). On day one, HT-29 cells were plated in 96-well assay plates at density of 2,500-3,500 cells per well. On day two, necrosis were induced by adding 20 ng/ml TNF-α (T), 100 nM Smac mimetic (S), and […] z-VAD (Z). At the same time, 10 mM compound from a chemical library of ˜200,000 compounds was delivered into each well. After 24 hrs treatment, cell viability was determined by measuring ATP level using the Cell Titer-Glo Luminescent Cell Viability Assay kit. A CellTiter-Glo Assay (Promega) was performed according to the manufacturer's instructions. Luminescence was recorded with a PerkinElmer EnSpire Multimode Plate Reader. Survived cells were normalized to those cells treated with DMSO. RIPA-56 was used as a positive control for screening necroptosis inhibitors. Data are represented as mean±standard deviation of duplicates.
In previous work, we performed a cell-based high-throughput screen to identify necroptosis inhibitors using a chemical library of ˜200,000 compounds and identified multiple compounds that protected human colorectal adenocarcinoma (HT-29) cells from TNF-α/Smac mimetic/Z-VAD-fmk (TSZ)-induced necroptosis.^[4]
The anti-necroptosis potency of compounds 7-12 and 14-18 was evaluated in the HT-29 cell line; the EC50 values are shown in Table B.
[a] Necroptosis was induced in HT-29 cells for 24 h; the EC50 values given here are the mean values of at least three independent analyses.

[1] = Series 1 (Table 1) compounds 147-176, activity extrapolated, read-out: Series 1 compound necroptosis activity (extrapolated)
[2] = Homo sapiens, Series 1 (Table 1) compounds 1-146, HT-29 cells, TNF-α/Smac mimetic/z-VAD, 24 hrs, cell viability by ATP level, read-out: Series 1 compound necroptosis activity
[3] = Series 1 (Table 1) compounds 1-146, HT-29 cells, TNF-α/Smac mimetic/z-VAD, 24 hrs, cell viability by ATP level, read-out: Series 1 compound necroptosis activity
[4] = Homo sapiens, Series 2 (Table 2) compounds, HT-29 necroptosis assay, read-out: Series 2 compound necroptosis activity
[5] = Series 1 (Table 1) compounds, HT-29 cells, TNF-α/Smac mimetic/z-VAD, 24 hrs, cell viability by ATP level, read-out: Series 1 compound necroptosis activity

Cn1c(=O)c2c(nc(S(=O)(=O)CC3CC3)n2C)n(Cc2cn(/C=C/CN)nn2)c1=O [Compound 172]
EC50 [1]: 1 to 1000 µM

Cn1c(=O)c2c(nc(S(=O)(=O)CC3CC3)n2C)n(Cc2ccc(F)cc2)c1=O [Compound 135, 8-((cyclopropylmethyl)sulfonyl)-3-(4-fluorobenzyl)-1,7-dimethyl-1H-purine-2,6(3H,7H)-dione]
EC50 [2]: 1 to 100 µM

CNS(=O)(=O)c1nc2c(c(=O)n(C)c(=O)n2CC#Cc2cccc(O)c2)n1C [Compound 157]
EC50 [1]: 1 to 1000 µM

CCCS(=O)(=O)c1nc2c(c(=O)n(C)c(=O)n2C)n1C [Compound 10, 1,3,7-trimethyl-8-(propylsulfonyl)-1H-purine-2,6(3H,7H)-dione]
EC50 [2]: 1 to 100 µM

Cn1c(=O)c2c(nc(S(=O)(=O)Cc3cc(Cl)cc(Cl)c3)n2C)n(C)c1=O [Compound 56, 8-(3,5-dichlorobenzylsulfonyl)-1,3,7-trimethyl-1H-purine-2,6(3H,7H)-dione]
EC50 [2]: 1 to 100 µM

Cn1c(=O)c2c(nc(S(=O)(=O)CCc3cn(CCOCCOCCOCCNC(=O)CCCC[C@@H]4SCC5NC(=O)NC54)nn3)n2C)n(C)c1=O (stereo partly drawn) [Compound 25, 5-((4S)-2-oxohexahydro-1H-thieno[3,4-d]imidazol-4-yl)-N-(2-(2-(2-(2-(4-(2-(1,3,7-trimethyl-2,6-dioxo-2,3,6,7-tetrahydro-1H-purin-8-ylsulfonyl)ethyl)-1H-1,2,3-triazol-1-yl)ethoxy)ethoxy)ethoxy)ethyl)pentanamide]
EC50 [3]: 1 to 1000 µM

Cn1c(S(C)(=O)=O)nc2c1c(=O)n(Cc1ccccc1)c(=O)n2C [Compound 93, 1-benzyl-3,7-dimethyl-8-(methylsulfonyl)-1H-purine-2,6(3H,7H)-dione]
EC50 [3]: 1 to 1000 µM

CC(C)S(=O)(=O)c1nc2c(c(=O)n(C)c(=O)n2C)n1C [Compound 18]
EC50 [2]: 1 to 100 µM

CCCCCNc1cccc(C#CCn2c(=O)n(C)c(=O)c3c2nc(S(C)(=O)=O)n3C)c1 [Compound 16]
EC50 [4]: 0.1 to 10 µM

Cn1c(=O)c2c(nc(S(=O)(=O)Cc3ccc(Br)c(Cl)c3)n2C)n(C)c1=O [Compound 64, 8-(4-bromo-3-chlorobenzylsulfonyl)-1,3,7-trimethyl-1H-purine-2,6(3H,7H)-dione]
EC50 [3]: 1 to 1000 µM

Cn1c(=O)c2c(nc(S(C)(=O)=O)n2C)n(CC#Cc2cc(N)cc(NC(=O)C3CC3)c2)c1=O [Compound 40]
EC50 [4]: 0.001 to 0.1 µM

Cn1c(=O)c2c(nc([S+](C)[O-])n2C)n(C)c1=O (centres unmarked) [Compound 3, 1,3,7-trimethyl-8-(methylsulfinyl)-1H-purine-2,6(3H,7H)-dione]
EC50 [3]: 1 to 1000 µM

Cc1c2c(=O)n(C)c(=O)n(C)c2nn1S(C)(=O)=O [Compound 145, 3,5,7-trimethyl-2-(methylsulfonyl)-2H-pyrazolo[3,4-d]pyrimidine-4,6(5H,7H)-dione]
EC50 [3]: 1 to 1000 µM

COCCn1c(S(C)(=O)=O)nc2c1c(=O)n(C)c(=O)n2C [Compound 6]
EC50 [4]: 10 to 100 µM

Cn1c(=O)c2c(nc(S(C)(=O)=O)n2C)n(CC#Cc2cccc(NCCN3CCCCC3)c2)c1=O [Compound 18]
EC50 [4]: 0.1 to 10 µM

Cn1c(=O)c2c(nc(S(=O)(=O)Cc3cccc[n+]3[O-])n2C)n(C)c1=O [Compound 49, 2-((1,3,7-trimethyl-2,6-dioxo-2,3,6,7-tetrahydro-1H-purin-8-ylsulfonyl)methyl)pyridine 1-oxide]
EC50 [3]: 1 to 1000 µM

Cn1c(=O)c2c(nc(S(=O)(=O)Cc3ccccc3)n2C)n(C)c1=O [Compound 21, 8-(benzylsulfonyl)-1,3,7-trimethyl-1H-purine-2,6(3H,7H)-dione]
EC50 [2]: 1 to 100 µM

CCCS(=O)(=O)c1nc2c(c(=O)n(C)c(=O)n2CC#Cc2cccc(O)c2)n1C [Compound 155]
EC50 [1]: 1 to 1000 µM

Cn1c(=O)c2c(nc(S(=O)(=O)Cc3ccccc3[N+](=O)[O-])n2C)n(C)c1=O [Compound 38, 1,3,7-trimethyl-8-(2-nitrobenzylsulfonyl)-1H-purine-2,6(3H,7H)-dione]
EC50 [3]: 1 to 1000 µM

Cn1c(=O)c2c(nc(S(=O)(=O)Cc3cccc(Cl)c3)n2C)n(C)c1=O [Compound 30, 8-(3-chlorobenzylsulfonyl)-1,3,7-trimethyl-1H-purine-2,6(3H,7H)-dione]
EC50 [3]: 1 to 1000 µM

Cn1c(=O)c2c(nc(S(C)(=O)=O)n2C)n(Cc2cccs2)c1=O [Compound 131, 1,7-dimethyl-8-(methylsulfonyl)-3-(thiophen-2-ylmethyl)-1H-purine-2,6(3H,7H)-dione]
EC50 [5]: 0.001 to 1 µM

CCNc1cc(C#CCn2c(=O)n(C)c(=O)c3c2nc(S(=O)(=O)CC2CC2)n3C)ccn1 [Compound 33]
EC50 [4]: 0.001 to 0.1 µM

Cn1c(=O)c2c(nc([S+](C)[O-])n2C)n(CC#Cc2cc(NC(=O)C3CC3)cc(C(F)(F)F)c2)c1=O (centres unmarked) [Compound 49]
EC50 [4]: > 10 µM

Cn1c(=O)c2c(nc(S(=O)(=O)CCO)n2C)n(CC#Cc2cccc(O)c2)c1=O [Compound 147]
EC50 [1]: 1 to 1000 µM

CSc1nc2c(c(=O)n(C)c(=O)n2C)n1C [Compound 2, 1,3,7-trimethyl-8-(methylthio)-1H-purine-2,6(3H,7H)-dione]
EC50 [3]: 1 to 1000 µM

COc1cc(C#CCn2c(=O)n(C)c(=O)c3c2nc(S(C)(=O)=O)n3C)cc(NCCN2CCOCC2)c1 [Compound 21]
EC50 [4]: 0.001 to 0.1 µM

Cn1c(=O)c2c(nc(S(=O)(=O)CC3CC3)n2C)n(Cc2ccccc2Cl)c1=O [Compound 136, 3-(2-chlorobenzyl)-8-((cyclopropylmethyl)sulfonyl)-1,7-dimethyl-1H-purine-2,6(3H,7H)-dione]
EC50 [2]: 1 to 100 µM

COCCOCCS(=O)(=O)c1nc2c(c(=O)n(C)c(=O)n2CC#Cc2cccc(O)c2)n1C [Compound 154]
EC50 [1]: 1 to 1000 µM

CNCCS(=O)(=O)c1nc2c(c(=O)n(C)c(=O)n2CC#Cc2cccc(O)c2)n1C [Compound 151]
EC50 [1]: 1 to 1000 µM

COc1cccc(OC)c1CS(=O)(=O)c1nc2c(c(=O)n(C)c(=O)n2C)n1C [Compound 62, 8-(2,6-dimethoxybenzylsulfonyl)-1,3,7-trimethyl-1H-purine-2,6(3H,7H)-dione]
EC50 [3]: 1 to 1000 µM

Cn1c(=O)c2c(nc(S(=O)(=O)Cc3cccc(F)c3)n2C)n(C)c1=O [Compound 27, 8-(3-fluorobenzylsulfonyl)-1,3,7-trimethyl-1H-purine-2,6(3H,7H)-dione]
EC50 [3]: 1 to 1000 µM

Cn1c(=O)c2c(nc(S(C)(=O)=O)n2C)n(CC#CC2CCCNC2)c1=O (centres unmarked) [Compound 167]
EC50 [1]: 1 to 1000 µM

Cn1c(=O)c2c(nc(S(=O)(=O)CCOCCO)n2C)n(CC#Cc2cccc(O)c2)c1=O [Compound 153]
EC50 [1]: 1 to 1000 µM

Cn1c(S(C)(=O)=O)nc2c1c(=O)n(CC1CC1)c(=O)n2C [Compound 91, 1-(cyclopropylmethyl)-3,7-dimethyl-8-(methylsulfonyl)-1H-purine-2,6(3H,7H)-dione]
EC50 [3]: 1 to 1000 µM

Cn1c(=O)c2c(nc(S(=O)(=O)CC3CC3)n2C)n(Cc2ccccc2Br)c1=O [Compound 139, 3-(2-bromobenzyl)-8-((cyclopropylmethyl)sulfonyl)-1,7-dimethyl-1H-purine-2,6(3H,7H)-dione]
EC50 [2]: 1 to 100 µM

CN(C)CCOc1cc(C#CCn2c(=O)n(C)c(=O)c3c2nc(S(C)(=O)=O)n3C)cc(NC(=O)C2CC2)c1 [Compound 42]
EC50 [4]: 0.001 to 0.1 µM

Cn1c(=O)c2c(nc(S(=O)(=O)CC3CC3)n2C)n(Cc2ccccc2F)c1=O [Compound 133, 8-((cyclopropylmethyl)sulfonyl)-3-(2-fluorobenzyl)-1,7-dimethyl-1H-purine-2,6(3H,7H)-dione]
EC50 [2]: 1 to 100 µM

CCCS(=O)(=O)c1nc2c(c(=O)n(C)c(=O)n2Cc2ccc(-c3cccc(NCC)c3)s2)n1C [Compound 176]
EC50 [1]: 1 to 1000 µM

CSc1nc2c(c(=O)[nH]c(=O)n2C)n1C [Compound 87, 3,7-dimethyl-8-(methylthio)-1H-purine-2,6(3H,7H)-dione]
EC50 [3]: 1 to 1000 µM

CNc1cc(C#CCn2c(=O)n(C)c(=O)c3c2nc(S(=O)(=O)CC2CC2)n3C)ccn1 [Compound 126, 8-((cyclopropylmethyl)sulfonyl)-1,7-dimethyl-3-(3-(2-(methylamino)pyridin-4-yl)prop-2-yn-1-yl)-3,7-dihydro-1H-purine-2,6-dione]
EC50 [5]: 0.001 to 1 µM

CCCOc1ccc(OC)c(CS(=O)(=O)c2nc3c(c(=O)n(C)c(=O)n3C)n2C)c1 [Compound 68, 8-(2-methoxy-5-propoxybenzylsulfonyl)-1,3,7-trimethyl-1H-purine-2,6(3H,7H)-dione]
EC50 [3]: 1 to 1000 µM

Cn1c(=O)c2c(nc(S(=O)(=O)Cc3ccccc3Cl)n2C)n(C)c1=O [Compound 29, 8-(2-chlorobenzylsulfonyl)-1,3,7-trimethyl-1H-purine-2,6(3H,7H)-dione]
EC50 [3]: 1 to 1000 µM

Cn1c(=O)c2c(nc(S(=O)(=O)CCc3ccccc3)n2C)n(C)c1=O [Compound 22, 1,3,7-trimethyl-8-(phenethylsulfonyl)-1H-purine-2,6(3H,7H)-dione]
EC50 [3]: 1 to 1000 µM

COc1cc(CS(=O)(=O)c2nc3c(c(=O)n(C)c(=O)n3C)n2C)c(OC)cc1Cl [Compound 70, 8-(4-chloro-2,5-dimethoxybenzylsulfonyl)-1,3,7-trimethyl-1H-purine-2,6(3H,7H)-dione]
EC50 [3]: 1 to 1000 µM

— US11666577B2 (National Institute of Biological Sciences, Beijing, priority 2018, dated 2023)
